In brackets after ≈: the same amount, converted by molar mass.
What was measured:
Assay in all cases: ≥ marks a high value that may be exact or a test limit, other limits are often not marked, values filed in µg/mL are converted to µM
Enterococcus faecalis = tested on: Enterococcus faecalis
Escherichia coli W3110 = tested on: Escherichia coli W3110
[1] = tested on: Pseudomonas aeruginosa PAK
Staphylococcus aureus = tested on: Staphylococcus aureus
[2] = tested on: Streptococcus mutans UA159
[3] = tested on: Streptococcus sanguinis NY101
[4] = tested on: Streptococcus sobrinus ATCC 33478
Aureobasidium pullulans = tested on: Aureobasidium pullulans
Bacillus megaterium = tested on: Bacillus megaterium
[5] = tested on: Bacillus subtilis ATCC 23857
[6] = tested on: Candida albicans ATCC 10231
[7] = tested on: Corynebacterium glutamicum ATCC 13032
[8] = tested on: Escherichia coli ATCC 25922
Micrococcus luteus = tested on: Micrococcus luteus
[9] = tested on: Pseudomonas aeruginosa ATCC 27853
[10] = tested on: Staphylococcus aureus ATCC 9144
[11] = tested on: Bacillus subtilis MTCC 14416
Escherichia coli MG1655 = tested on: Escherichia coli MG1655
[12] = tested on: Staphylococcus aureus ATCC 43300
[13] = tested on: Staphylococcus aureus MTCC 9542
Vibrio cholerae = tested on: Vibrio cholerae
[14] = tested on: Enterococcus faecalis ATCC 29212
[15] = tested on: Streptococcus gordonii Challis DL1
[16] = tested on: Streptococcus mitis ATCC 903

| MIC (Enterococcus faecalis) [µM] | MIC (Escherichia coli W3110) [µM] | MIC [1] [µM] | MIC (Staphylococcus aureus) [µM] | MIC [2] [µM] | MIC [3] [µM] | MIC [4] [µM] | MIC (Aureobasidium pullulans) [µM] | MIC [6] [µM] | MIC [7] [µM] | MIC [8] [µM] | MIC [9] [µM] | MIC [10] [µM] | MIC [11] [µM] | MIC (Escherichia coli MG1655) [µM] | MIC [12] [µM] | MIC [13] [µM] | SMILES | MIC (Vibrio cholerae) [µM] | further results |
| --- | --- | --- | --- | --- | --- | --- | --- | --- | --- | --- | --- | --- | --- | --- | --- | --- | --- | --- | --- |
|  |  |  |  |  |  |  |  |  |  |  | > 44 |  | ≥ 44 | 11 (≈ 25 µg/mL) | > 44 | 5.5 (≈ 12.5 µg/mL) | CC[C@H](C)[C@@H]1NC(=O)[C@H](CCCCN)NC(=O)[C@@H](NC(=O)[C@H](CC(C)C)NC(=O)[C@@H](NC(=O)[C@H](CCC(N)=O)NC(=O)[C@@H]2CCCN2C(=O)[C@H](CC(C)C)NC(=O)[C@H](Cc2ccccc2)NC(=O)[C@H](CC(N)=O)NC(=O)[C@H](C)NC(=O)[C@H](C)NC(=O)[C@H](CC(C)C)NC(=O)CNC(=O)[C@H](C)NC(=O)[C@@H](NC(=O)[C@@H](N)CCCCN)[C@@H](C)CC)[C@@H](C)CC)CSSC[C@@H](C(N)=O)NC(=O)[C@H](CCCCN)NC(=O)[C@H](CCCN=C(N)N)NC(=O)[C@H](C)NC1=O [KIAGLAANFLPQILCKIARKC] | 11 (≈ 25 µg/mL) | MIC [14]: 22 µM (≈ 49.9 µg/mL) |
| 14 (≈ 32 µg/mL) | ≥ 110 | ≥ 110 | 27.4 (≈ 62.5 µg/mL) | 7.02 (≈ 16 µg/mL) | 27.4 (≈ 62.5 µg/mL) | 14 (≈ 32 µg/mL) |  |  |  |  |  |  |  |  |  |  | CC[C@H](C)[C@H](NC(=O)[C@H](Cc1cnc[nH]1)NC(=O)[C@H](CCCCN)NC(=O)[C@@H](NC(=O)[C@@H](N)CC(C)C)[C@@H](C)CC)C(=O)N[C@@H](CC(C)C)C(=O)N[C@@H](Cc1cnc[nH]1)C(=O)N[C@@H](CCCN=C(N)N)C(=O)N[C@@H](CC(C)C)C(=O)NCC(=O)NCC(=O)NCC(=O)N[C@@H](Cc1ccccc1)C(=O)N[C@@H](Cc1cnc[nH]1)C(=O)N[C@@H](Cc1ccccc1)C(=O)N[C@@H](Cc1cnc[nH]1)C(=O)N[C@@H](CC(C)C)C(=O)N[C@@H](Cc1cnc[nH]1)C(=O)N[C@@H](Cc1ccccc1)C(N)=O [LIKHILHRLGGGFHFHLHF] |  |  |
| ≥ 348 | ≥ 348 | ≥ 348 | > 348 | ≥ 348 | ≥ 348 | ≥ 348 |  |  |  |  |  |  |  |  |  |  | NC(=O)CC[C@H](NC(=O)[C@H](Cc1c[nH]c2ccccc12)NC(=O)[C@@H](N)Cc1c[nH]c2ccccc12)C(=O)N[C@@H](CC(=O)O)C(=O)N[C@@H](Cc1c[nH]c2ccccc12)C(=O)N[C@@H](Cc1c[nH]c2ccccc12)C(=O)N[C@@H](CC(N)=O)C(=O)N[C@@H](CCC(=O)O)C(=O)N[C@@H](Cc1c[nH]c2ccccc12)C(N)=O [WWQDWWNEW] |  | MIC [15]: ≥ 348 µM; MIC [16]: ≥ 348 µM |

The next lines start with the compound.

| SMILES | MIC (Enterococcus faecalis) [µM] | MIC (Escherichia coli W3110) [µM] | MIC [1] [µM] | MIC (Staphylococcus aureus) [µM] | MIC [2] [µM] | MIC [3] [µM] | MIC [4] [µM] | MIC (Aureobasidium pullulans) [µM] | MIC [6] [µM] | MIC [7] [µM] | MIC [8] [µM] | MIC [9] [µM] | MIC [10] [µM] | MIC [11] [µM] | MIC (Escherichia coli MG1655) [µM] | MIC [12] [µM] | MIC [13] [µM] | MIC (Vibrio cholerae) [µM] | further results |
| --- | --- | --- | --- | --- | --- | --- | --- | --- | --- | --- | --- | --- | --- | --- | --- | --- | --- | --- | --- |
| CC[C@H](C)[C@H](NC(=O)[C@H](Cc1ccccc1)NC(=O)[C@H](Cc1cnc[nH]1)NC(=O)[C@H](CCCCN)NC(=O)[C@@H](NC(=O)[C@H](Cc1ccccc1)NC(=O)[C@@H]1CCCN1C(=O)[C@H](CO)NC(=O)CNC(=O)[C@H](CO)NC(=O)[C@@H]1CCCN1C(=O)[C@H](Cc1ccccc1)NC(=O)[C@H](Cc1cnc[nH]1)NC(=O)[C@H](CC(C)C)NC(=O)[C@H](Cc1cnc[nH]1)NC(=O)[C@H](Cc1ccccc1)NC(=O)[C@H](Cc1cnc[nH]1)NC(=O)[C@@H](N)Cc1ccccc1)[C@@H](C)CC)C(=O)N[C@@H](Cc1cnc[nH]1)C(=O)N[C@@H](CCCN=C(N)N)C(=O)N[C@@H](Cc1ccccc1)C(N)=O [FHFHLHFPSGSPFIKHFIHRF] | ≥ 94.8 | ≥ 47.4 | ≥ 190 | > 190 | 23.7 (≈ 62.5 µg/mL) | 23.7 (≈ 62.5 µg/mL) | 23.7 (≈ 62.5 µg/mL) |  |  |  |  |  |  |  |  |  |  |  |  |
| CC(C)C[C@H](NC(=O)[C@H](CC(C)C)NC(=O)[C@H](CC(C)C)NC(=O)[C@@H]1CCCN1C(=O)[C@H](CCCN=C(N)N)NC(=O)[C@H](CCCN=C(N)N)NC(=O)CN)C(=O)N[C@@H](CCCN=C(N)N)C(=O)N[C@@H](C)C(=O)N[C@@H](CCCN=C(N)N)C(N)=O [GRRPLLLRAR] |  |  |  |  |  |  |  | ≥ 207 | 104 (≈ 125 µg/mL) | 25.9 (≈ 31.3 µg/mL) | > 207 | > 207 | ≥ 207 |  |  |  |  |  | MIC (Bacillus megaterium): 6.46 µM (≈ 7.79 µg/mL); MIC [5]: ≥ 207 µM; MIC (Micrococcus luteus): ≥ 51.8 µM |
| C[C@H](NC(=O)[C@H](CCCN=C(N)N)NC(=O)[C@H](Cc1c[nH]c2ccccc12)NC(=O)[C@H](Cc1c[nH]c2ccccc12)NC(=O)[C@H](Cc1c[nH]c2ccccc12)NC(=O)[C@H](Cc1c[nH]c2ccccc12)NC(=O)[C@H](CCCN=C(N)N)NC(=O)[C@H](CCCN=C(N)N)NC(=O)CN)C(=O)N[C@@H](CCCN=C(N)N)C(N)=O [GRRWWWWRAR] |  |  |  |  |  |  |  | ≥ 41.2 | 41.2 (≈ 62.5 µg/mL) | 5.15 (≈ 7.8 µg/mL) | 10.3 (≈ 15.6 µg/mL) | 20.7 (≈ 31.3 µg/mL) | ≥ 41.2 |  |  |  |  |  | MIC (Bacillus megaterium): 2.57 µM (≈ 3.9 µg/mL); MIC [5]: 5.15 µM (≈ 7.8 µg/mL); MIC (Micrococcus luteus): 10.3 µM (≈ 15.6 µg/mL) |
| CC(C)[C@H](NC(=O)[C@H](CCCCN)NC(=O)[C@H](C)NC(=O)[C@@H](NC(=O)[C@@H](NC(=O)[C@H](C)NC(=O)[C@H](CCCN=C(N)N)NC(=O)[C@H](Cc1c[nH]c2ccccc12)NC(=O)[C@H](Cc1c[nH]c2ccccc12)NC(=O)CN)[C@@H](C)O)C(C)C)C(=O)N[C@@H](CCCN=C(N)N)C(=O)N[C@@H](CCCCN)C(N)=O [GWWRATVAKVRK] |  |  |  |  |  |  |  | 25 (≈ 36.4 µg/mL) | 25 (≈ 36.4 µg/mL) | 0.8 (≈ 1.17 µg/mL) | 6.3 (≈ 9.18 µg/mL) | 25 (≈ 36.4 µg/mL) | ≥ 100 |  |  |  |  |  |  |
| CC[C@H](C)[C@@H]1NC(=O)[C@H](CCCCN)NC(=O)[C@@H](NC(=O)[C@H](CC(C)C)NC(=O)[C@@H](NC(=O)[C@H](CCC(N)=O)NC(=O)[C@@H]2CCCN2C(=O)[C@H](CC(C)C)NC(=O)[C@H](Cc2ccccc2)NC(=O)[C@H](CC(N)=O)NC(=O)[C@H](C)NC(=O)[C@H](C)NC(=O)[C@H](CC(C)C)NC(=O)CNC(=O)[C@H](C)NC(=O)[C@@H](NC(=O)[C@@H](N)Cc2cnc[nH]2)[C@@H](C)CC)[C@@H](C)CC)CSSC[C@@H](C(N)=O)NC(=O)[C@H](CCCCN)NC(=O)[C@H](CCCN=C(N)N)NC(=O)[C@H](C)NC1=O [HIAGLAANFLPQILCKIARKC] |  |  |  |  |  |  |  |  |  |  |  | > 43.8 |  | 21.9 (≈ 49.9 µg/mL) | 21.9 (≈ 49.9 µg/mL) | 43.8 (≈ 99.9 µg/mL) | ≥ 43.8 | 11 (≈ 25 µg/mL) |  |
| CC[C@H](C)[C@H](N)C(=O)N[C@@H](C)C(=O)NCC(=O)N[C@@H](CC(C)C)C(=O)N[C@@H](C)C(=O)N[C@@H](C)C(=O)N[C@@H](CC(N)=O)C(=O)N[C@@H](Cc1ccccc1)C(=O)N[C@@H](CC(C)C)C(=O)N1CCC[C@H]1C(=O)N[C@@H](CCC(N)=O)C(=O)N[C@H](C(=O)N[C@@H](CC(C)C)C(=O)N[C@H]1CSSC[C@@H](C(N)=O)NC(=O)[C@H](CCCCN)NC(=O)[C@H](CCCN=C(N)N)NC(=O)[C@H](C)NC(=O)[C@H]([C@@H](C)CC)NC(=O)[C@H](CCCCN)NC1=O)[C@@H](C)CC [IAGLAANFLPQILCKIARKC] |  |  |  |  |  |  |  |  |  |  |  | > 46.6 |  | ≥ 46.6 | 23.3 (≈ 49.9 µg/mL) | > 46.6 | 11.7 (≈ 25 µg/mL) | 11.7 (≈ 25 µg/mL) |  |
